Patent publication US20080070860A1, “Adenosine Analogs Useful as Anti-Bacterial and Anti Protozoan Agents” (UTI LIMITED PARTNERSHIP, priority 2005, published 2008)
Blank lines part the entries; values can stand above or below the compound they belong to.

What was measured:
adenosine phosphorylase = target: T1, adenosine phosphorylase (Escherichia coli, UniProt P0ABP8); assay: Adenosine phosphorylase assay (cleavage of nucleoside analog to base, E. coli cell free lysate, HPLC); type: biochemical, Escherichia coli DH5alpha; conditions: 100 μM nucleoside analog, 20 min, 50 mM phosphate pH 7.4
T1 construct: assayed using the cell free lysate of E. coli as enzyme source; endogenous in cells; host or cells: Escherichia coli DH5alpha (cell-free lysate, 10,000 x g supernatant)
T1 sequence (P0ABP8 2-239): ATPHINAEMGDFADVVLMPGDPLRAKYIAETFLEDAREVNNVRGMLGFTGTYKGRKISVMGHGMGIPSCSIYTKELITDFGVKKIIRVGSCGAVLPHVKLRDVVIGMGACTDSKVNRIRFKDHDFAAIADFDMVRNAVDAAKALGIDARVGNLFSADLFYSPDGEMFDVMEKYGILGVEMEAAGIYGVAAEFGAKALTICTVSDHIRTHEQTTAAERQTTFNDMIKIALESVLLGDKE
Description: Escherichia coli DH5alpha cells were used as the source of adenosine phosphorylase to test the compounds of the present invention. E. coli DH5 alpha cells were harvested in log phase and collected by centrifugation. Cells were lysed by sonication, centrifuged at 10,000×g for 30 min and the supernatant was recovered for assay or storage at −60° C.
Adenosine phosphorylase activity was assayed using the cell free lysate of E. coli as enzyme source for catalysis of the cleavage of nucleoside analogs to their corresponding base analogs in the presence of 50 mM phosphate at pH 7.4. Reaction products were subjected to separation by reverse phase high performance liquid chromatography (HPLC) equipped with continuous scanning diode array detector as described below. Substrates and products were identified by retention time and UV spectra of their peaks.
Samples for HPLC were prepared post reaction by deproteination with 10% v/v of 50% TCA. Following centrifugation at 10,000 g for 5 min the supernatant was recovered for neutralization. A minimal amount of bromophenol blue was added and the sample was titrated with alamine-freon. Following a further centrifugation at 10,000 g for 5 min, the neutralized sample may be stored at −60° C.
Nucleosides and bases in a 10 μl sample were separated on an HPLC equipped with a scanning UV detector from 220 to 320 nm at 5 nm intervals, utilizing a reverse phase Waters Symmetry C18, 4.6×150 mm, 5 um column in tandem with a Waters guard column.
Compounds were identified by retention time and UV spectra at peak height as collected during separation.
The relative rate of conversion of 100 μM nucleoside analog to the corresponding base in 20 min (measured as the % of analog converted) was determined for the following compounds: 5′-deoxyadenosine, 41%; 2-chloroadenosine, 31%; 2-chloro-5′-deoxyadenosine, 8%; 2-fluoro-5′-deoxyadenosine, >80%; 6-thiopurine-5′-deoxyriboside, 61%; 2-amino-5′-deoxyadenosine, 7%.

adenosine kinase = adenosine kinase (Homo sapiens, UniProt P55263); conditions: Kowaluk et al. 1998; cited from earlier work
adenosine kinase, sequence (P55263 whole entry, species assumed): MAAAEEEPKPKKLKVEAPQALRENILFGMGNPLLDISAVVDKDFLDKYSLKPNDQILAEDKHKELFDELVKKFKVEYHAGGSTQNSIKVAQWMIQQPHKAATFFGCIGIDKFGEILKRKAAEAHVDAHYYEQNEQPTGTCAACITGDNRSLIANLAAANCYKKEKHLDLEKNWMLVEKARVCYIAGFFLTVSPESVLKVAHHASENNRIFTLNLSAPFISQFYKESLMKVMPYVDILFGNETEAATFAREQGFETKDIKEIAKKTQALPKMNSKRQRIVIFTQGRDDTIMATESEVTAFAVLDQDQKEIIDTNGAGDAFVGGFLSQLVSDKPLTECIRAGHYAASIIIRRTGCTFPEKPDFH

adenosine deaminase = target: T2, adenosine deaminase (Homo sapiens, UniProt P00813); conditions: cited from earlier work
T2 sequence (P00813 1-363): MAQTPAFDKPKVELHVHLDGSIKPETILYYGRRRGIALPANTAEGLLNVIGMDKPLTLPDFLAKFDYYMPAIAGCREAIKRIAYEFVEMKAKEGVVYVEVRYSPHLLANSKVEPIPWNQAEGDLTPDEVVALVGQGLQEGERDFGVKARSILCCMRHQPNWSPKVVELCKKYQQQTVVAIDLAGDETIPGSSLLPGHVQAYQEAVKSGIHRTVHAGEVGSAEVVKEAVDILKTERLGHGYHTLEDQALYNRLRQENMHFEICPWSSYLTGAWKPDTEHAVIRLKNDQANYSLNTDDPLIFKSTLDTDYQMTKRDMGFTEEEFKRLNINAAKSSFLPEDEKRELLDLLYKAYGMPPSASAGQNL

melting point: 92 to 94 °C
Compound: COC[C@H]1O[C@@H](n2cnc3c(N)nc(Cl)nc32)[C@H](O)[C@@H]1O

melting point: 231 to 233 °C
Compound: COC[C@H]1O[C@@H](n2cnc3c(N)nc(F)nc32)[C@H](O)[C@@H]1O

Compound: C[C@H]1O[C@@H](n2cnc3c(N)nc(N)nc32)[C@H](O)[C@@H]1O [2-amino-5′-deoxyadenosine]
melting point: 135 to 138 °C | relative rate of conversion of nucleoside analog to the corresponding base (% of analog converted) (adenosine phosphorylase): 7%

Compound: C[C@H]1O[C@@H](n2cnc3c(N)nc(Cl)nc32)[C@H](O)[C@@H]1O [2-chloro-5′-deoxyadenosine]
relative rate of conversion of nucleoside analog to the corresponding base (% of analog converted) (adenosine phosphorylase): 8%

Compound: Nc1nc(Cl)nc2c1ncn2[C@@H]1O[C@H](CO)[C@@H](O)[C@H]1O [2-chloroadenosine, reference compound]
relative rate of conversion of nucleoside analog to the corresponding base (% of analog converted) (adenosine phosphorylase): 31%

Compound: C[C@H]1O[C@@H](n2cnc3c(N)nc(F)nc32)[C@H](O)[C@@H]1O [2-fluoro-5′-deoxyadenosine]
melting point: 244 to 245 °C | relative rate of conversion of nucleoside analog to the corresponding base (% of analog converted) (adenosine phosphorylase): > 80%

Compound: NC[C@H]1O[C@@H](n2cnc3c(N)ncnc32)[C@H](O)[C@@H]1O [5′-deoxy-5′-amino-adenosine]
inhibition of adenosine kinase (adenosine kinase): potent inhibitor

Compound: C[C@H]1O[C@@H](n2cnc3c(N)ncnc32)[C@H](O)[C@@H]1O [5′-deoxyadenosine]
relative rate of conversion of nucleoside analog to the corresponding base (% of analog converted) (adenosine phosphorylase): 41%

Compound: Cc1ncnc2nc[nH]c12 [6-methylpurine]
susceptibility to adenosine deaminase (adenosine deaminase): quite refractory

Compound: C[C@H]1O[C@@H](n2cnc3c(S)ncnc32)[C@H](O)[C@@H]1O [6-thiopurine-5′-deoxyriboside, 6-mercaptopurine-5′-deoxy-β-D-riboside]
relative rate of conversion of nucleoside analog to the corresponding base (% of analog converted) (adenosine phosphorylase): 61%
